# US7803844B2, “Composition for preventing and/or treating bone disease, physiologically functional or health food containing thereof, and pharmaceutical containing thereof as active ingredients” (Erina Co. Inc., priority 2004, dated 2010)
# Columns and labels:
# [1] = test system: M-CSF dependent cells derived from mice bone marrow cells (BMM); test: Inhibition assay II of the early stage differentiation of osteoclast (TRAP activity); type: cell-based, mouse; conditions: mouse bone marrow M-CSF dependent cells, 50 ng/mL RANKL
# Protocol: Mouse bone marrow cells were obtained from femurs and shanks of male ddy mice from 6 to 9 week age (Chubu Kagaku Shizai Co. Ltd.)
# From 6 to 9 week ages of ddy mice, the femurs and shanks were excised. The bone row cells were extruded from these bones by using a syringe with 22 G×1 and ¼ gauge needle to obtain.
# Obtained bone marrow cells were suspended in 10% FBS-MEM supplemented with 100 μg/mL of sodium streptomycin, 100 U/mL of sodium penicillin G, 50 ng/mL of M-CSF, and 1 ng/mL of TGF-β, and then inoculated to each well of the 96-well microplate at the cell concentration of 1×10^6 cells/0.1 mL/well. Then, the plates were incubated under the presence of 5% CO2, at 37° C.
# After 3 days incubation, the culture medium was exchanged to that including 50 ng/mL of M-CSF and 50 ng/mL of osteoclast differentiation factor (DF/RANKL), simultaneously honokiol prepared as the same concentration as used in the example 1 was added. The medium of the control group was exchanged that including M-CSF and ODF/RANKL, but no honokiol. The plates were further incubated under the condition of the presence of 5% CO2, at 37° C.
# After 1.5 days from the medium exchange, tartrate resistant acid phosphatase activity, the early stage differentiation marker, was measured. Medium in each well was discarded and washed plate with PBS, the cells in the well was fixed for 15 minutes by using 10% HCHO/PBS. Furthermore, the cells were fixed by using ethanol-acetone (1:1) mixture. After fixation, the fixed mixture was discarded and dried at room temperature. After drying, tartrate resistant acid phosphatase (TRAP) of the cells in each well was measured and stained similarly to those in the example 1.
# The inhibition assay of the early stage differentiation of osteoclast was carried out similarly to the described above, except honokiol used in the above mentioned (3-2) was substituted to magnolol, and its concentration was from 20 to 60 μM.
# [2] = test system: M-CSF dependent cells derived from mice bone marrow cells (BMM); test: Cell proliferation counting assay (XTT) in bone marrow derived cells
# Protocol: Alternatively, the cell proliferation counting assay was performed as the same as that in the example 1, the cell viability was obtained. In FIG. 2A, the cell viability was shown as white columns.
# [3] = test system: MφRAW264 cells; test: Actin ring formation assay I; type: cell-based; conditions: 20 μM, 1 day after actin ring formation, MφRAW264 with ODF/RANKL and PD98059
# Protocol: After that, 0.1 mL of the medium including 100 ng/mL of ODF/RANKL and 20 μM PD98059 was added, and further incubated under the same condition (final concentration of RANKL was 50 ng/mL, and that of PD98059 10 μM). In order to promote the differentiation to the activated osteoclast, two days after the addition of ODF/RANKL and PD98059, the medium was exchanged to that including 50 ng/mL of ODF/RANKL as described above; then the plate was incubated until the actin ring, the activated structure of osteoclast, formation was confirmed. After actin ring was formed, honokiol prepared as the same as that prepared in the example 1 was added, and cultured further one day. […] One day after when honokiol was added to culture, TRAP staining of the tartrate resistant acid phosphatase (TRAP) in each well, similarly o those performed.
# [4] = test system: MC3T3-E1 cells; test: Cell viability after osteoblast differentiation induction (MTT assay); type: cell-based, mice; conditions: 30 μM, 7 days
# Protocol: As an evaluation method for the effect against the differentiation of osteoblast, MC3T3-E1 cell osteoblast differentiation induction assay was used. In the assay, the activity of alkaline phosphatase (ALP), the early stage differentiation marker enzyme of osteoblast, was determined, and the staining utilizing the activity (ALP staining) was performed. Expression level of osteocalcin, which is the marker of the differentiated osteoblast, was determined by using the EIA kit described above. Furthermore, in order to know the cytotoxicity, the cell viability was determined by using MTT assay. MC3T3-E1 cells were plated into the wells of the 96-well microplate at the concentration of 4×10^3 cells/well, and incubated two days under the presence of 5% of CO2, at 37° C. until cells became confluent in the well. […] The medium was exchanged every 3 or 4 days. In order to determine the cell viability, MC3T3-E1 cells were cultured for 7 days under the condition as described above. After that, MTT reagent was added into the well at the 1/10 volume of the medium in the well, and reacted for 1 hour at 37° C. Then, the medium was removed, and generated formazan was dissolved in DMSO; then its absorbance was measured by using microplate reader at the wave length of 570 nm (reference wave length was 630 nm).
# [5] = test system: MC3T3-E1 cells; test: Osteoblast differentiation induction assay, ALP activity; type: cell-based, mice; conditions: 3 to 30 μM, 7 days
# Protocol: As an evaluation method for the effect against the differentiation of osteoblast, MC3T3-E1 cell osteoblast differentiation induction assay was used. In the assay, the activity of alkaline phosphatase (ALP), the early stage differentiation marker enzyme of osteoblast, was determined, and the staining utilizing the activity (ALP staining) was performed. Expression level of osteocalcin, which is the marker of the differentiated osteoblast, was determined by using the EIA kit described above. Furthermore, in order to know the cytotoxicity, the cell viability was determined by using MTT assay. MC3T3-E1 cells were plated into the wells of the 96-well microplate at the concentration of 4×10^3 cells/well, and incubated two days under the presence of 5% of CO2, at 37° C. until cells became confluent in the well. […] The medium was exchanged every 3 or 4 days. ALP activity was determined as follows. At first, MC3T3-E1 cells were cultured for 7 days under the same condition as described above; then the medium was removed, and washed by using PBS. After that cells were fixed by using methanol and the dish was dried. […] The reaction was terminated by adding 100 μL of 0.1 N NaOH, and released p-nitrophenol was determined by measuring absorbance at the wave length of 405 nm, by using the plate reader for obtaining ALP activity. […]
compound,measurement,setting,value
C=CCc1ccc(O)c(-c2ccc(O)c(CC=C)c2)c1 [honokiol],IC50,"[1]; Bone marrow cell, read-out: IC50, inhibition of differentiation from M-CSF dependent bone marrow cells to osteoclast induced by RANKL",10 µM
same,TRAP activity (control %),"[1]; 1.5 days, honokiol 3-30 μM, magnolol 20-60 μM","inhibited, depending on the dose"
same,non-specific cytotoxicity (XTT assay),[2],did not show non-specific cytotoxicity
same,actin rings (activated structure of osteoclast),[3],destructed
same,cell viability of MC3T3-E1 cells,[4],slightly decreased
same,ALP activity,[5],enhanced in dose dependent manner
